Patent publication US20070087352A9, “Inhibitors for androgen antagonist refractory prostate cancer” (priority 2003, published 2007)
pIC50: −log10 of the molar value.

How the values were obtained:
agonist-bound ERα LBD = molecular target: T1, agonist-bound ERα LBD (Homo sapiens, UniProt P03372); test: Competition assays of GRIP1 NR Box 2 peptide; conditions: binding to agonist-bound ERα LBD
T1 sequence (P03372 311-547 limits assumed): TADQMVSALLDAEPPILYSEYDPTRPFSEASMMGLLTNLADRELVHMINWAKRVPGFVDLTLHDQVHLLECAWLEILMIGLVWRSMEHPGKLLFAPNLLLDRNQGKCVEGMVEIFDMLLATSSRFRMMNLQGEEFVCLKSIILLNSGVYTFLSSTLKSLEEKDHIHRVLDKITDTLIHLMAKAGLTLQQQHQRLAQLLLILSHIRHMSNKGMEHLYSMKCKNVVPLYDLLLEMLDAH

hERα-LBD = molecular target: T2, hERα-LBD (Homo sapiens, UniProt P03372); test: Electrophoretic mobility shift assay (native PAGE); format: binding; conditions: 2-fold or 10-fold molar excess of peptide, 6% native PAGE
T2 sequence (P03372 311-547 limits assumed): T1 sequence (P03372 311-547 limits assumed)
Procedure: Eight microgram samples of purified hERα-LBD bound to either DES or OHT were incubated in the absence of the GRIP1 NR Box 2 peptide (SEQ ID NO:4), i.e., buffer alone, or in the presence of either a 2-fold or 10-fold molar excess of the GRIP1 NR Box 2 peptide. The binding reactions were performed on ice for 45 minutes in 10 μl of buffer containing 20 mM Tris, pH 8.1, 1 mM DTT, and 200 mM NaCl and then subjected to 6% native PAGE. Gels were stained with GELCODE Blue Stain reagent (Pierce).
In the presence of the NR box 2 peptide, the migration of the DES-LBD complex was retarded. In contrast, peptide addition had no effect on the mobility of the OHT-LBD complex.

## H-KHKILHRLLQDSS-OH [GRIP1 NR Box 2 peptide]
agonist-bound ERα LBD
  pIC50: > 6.40
hERα-LBD; hERα-LBD bound to agonist DES
  migration of the DES-LBD complex: retarded
hERα-LBD; hERα-LBD bound to antagonist OHT
  mobility of the OHT-LBD complex: no effect
